According to PMC10066365, “Nemacol is a small molecule inhibitor of C. elegans vesicular acetylcholine transporter with anthelmintic potential” (Nature Communications, 2023):
Values joined by “and” are separate entries in the source; they are usually repeats but may differ in a detail not shown here. Equal values may be shown once.

Experiments:
C. elegans = C. elegans motor phenotype scoring on solid media (Punc/jerky-unc, coiled, paralyzed), wild-type young adults; assay type: in vivo, Caenorhabditis elegans; conditions: for any phene, mean % fraction of young adults exhibiting any phenotype (coiled, jerky-Unc or paralyzed) / atypical locomotion (number of animals) / coiled (number of animals) / no phene (number of animals) / paralyzed (number of animals) / any phene: mean % fraction of young adults exhibiting any phenotype (coiled, jerky-Unc or paralyzed): one hour; for any phene, mean % fraction of young adults exhibiting any phenotype (coiled, jerky-Unc or paralyzed) / any phene: mean % fraction of young adults exhibiting any phenotype (coiled, jerky-Unc or paralyzed): mean of three biological replicates; for atypical locomotion (number of animals) / coiled (number of animals) / no phene (number of animals) / paralyzed (number of animals): young adults, 20 animals per trial; for EC50: Caenorhabditis elegans, any motor phenotype after 1 h on solid media, ± 95% CI, read-out: C. elegans - motor disruption EC50
[1] = test system: Dirofilaria immitis microfilariae; assay: Dirofilaria immitis microfilariae immobility assay (DiroImager, 72 h); conditions: for % effect (motility), DIROIM MF: Dirofilaria immitis microfilariae
Outline: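 About 250 freshly purified microfilariae of the Missouri isolate per well in supplemented RPMI 1640, exposed to compound for 72 h. Motility scored by automated whole-plate optical imaging; medium with 1% DMSO as negative control.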

Pristionchus pacificus = Pristionchus pacificus motor disruption dose-response on solid media, 1 h; conditions: for mean % any phene (coiled, jerky-Unc or paralyzed): Pristionchus pacificus young adults, mean of three biological replicates; for EC50: Pristionchus pacificus, 1 h, read-out: P. pacificus motor disruption EC50
Description: Locomotor phenotype analyses were done in 24-well plates with 1 mL of MYOB substrate (27.5 g Trizma HCl, 12 g Trizma Base, 230 g bacto tryptone, 10 g NaCl, 0.4 g cholesterol (95%)) seeded with 25 µL of OP50 Escherichia coli on each well. Each compound was added to the MYOB substrate before pouring to achieve the desired final concentrations of 30 µM or 60 µM after diffusion through the media. Synchronized young adult worms are transferred into each well using a platinum wire pick. A Leica MZ75 stereomicroscope was used to visualize the movement of worms on the solid substrate. The specific dominant locomotor phenotype (i.e. ‘Punc’, ‘paralyzed’, ‘coiler’ or ‘wild-type locomotion’) was scored after the touch on the head with a platinum wire over a ~3–5 s of observation. […] Coiled animals were not scored as paralyzed despite sometimes not responding to light touch.

[2] = test system: Dirofilaria immitis L3/L4; assay: Dirofilaria immitis L3/L4 motility assay (DiroImager, 72 h); conditions: Dirofilaria immitis L4
[3] = 3.75uM, single replicate counts
[4] = conc 3.75, observed at one hour
[5] = 3.75uM, single technical replicate
[6] = 15uM, single technical replicate
[7] = 60uM, single technical replicate

| SMILES | any phene, mean % fraction of young adults exhibiting any phenotype (coiled, jerky-Unc or paralyzed) (C. elegans; 3.75uM) [%] | atypical locomotion (number of animals) (C. elegans; [3]) | coiled (number of animals) (C. elegans; [3]) | no phene (number of animals) (C. elegans; [3]) | paralyzed (number of animals) (C. elegans; [3]) | any phene, mean % fraction of young adults exhibiting any phenotype (coiled, jerky-Unc or paralyzed) (C. elegans; 15uM) [%] | atypical locomotion (number of animals) (C. elegans; 15uM, single replicate counts) | EC50 (C. elegans) [µM] | % effect (motility), DIROIM MF ([1]; 0.016 µM) [%] | % effect (motility), DIROIM MF ([1]; 0.08 µM) [%] | % effect (motility), DIROIM MF ([1]; 0.4 µM) [%] | % effect (motility), DIROIM MF ([1]; 2 µM) [%] | % effect (motility), DIROIM MF ([1]; 10 µM) [%] | mean % any phene (coiled, jerky-Unc or paralyzed) (Pristionchus pacificus; [4]) [%] | mean % any phene (coiled, jerky-Unc or paralyzed) (Pristionchus pacificus; conc 15, observed at one hour) [%] | mean % any phene (coiled, jerky-Unc or paralyzed) (Pristionchus pacificus; conc 60, observed at one hour) [%] | EC50 (Pristionchus pacificus) [µM] | % effect (motility), DIROIM L4 ([2]; 2 µM) [%] | % effect (motility), DIROIM L4 ([2]; 10 µM) [%] | % effect (motility), DIROIM L4 ([2]; 50 µM) [%] | other results |
| --- | --- | --- | --- | --- | --- | --- | --- | --- | --- | --- | --- | --- | --- | --- | --- | --- | --- | --- | --- | --- | --- |
| O=[N+]([O-])c1cccc(CN2CCN(C3CCCCC3)CC2)c1 [Nemacol-14] | 0.8333 | 0 | 0 | 20 and 19 | 0 and 1 | 0 | 0 | > 60 | 0 | 0 | 0 | 0 | 0 | 0 | 0.8333 | 12.5 | > 60 | 0 | 5 | 5 | coiled (number of animals) (C. elegans; 15uM, single replicate counts): 0; no phene (number of animals) (C. elegans; 15uM, single replicate counts): 20; paralyzed (number of animals) (C. elegans; 15uM, single replicate counts): 0; any phene, mean % fraction of young adults exhibiting any phenotype (coiled, jerky-Unc or paralyzed) (C. elegans; 60uM): 6.667%; atypical locomotion (number of animals) (C. elegans; 60uM, single replicate counts): 0 and 2; coiled (number of animals) (C. elegans; 60uM, single replicate counts): 0 and 2; no phene (number of animals) (C. elegans; 60uM, single replicate counts): 20 and 18 and 16; paralyzed (number of animals) (C. elegans; 60uM, single replicate counts): 0 |
| O=[N+]([O-])c1ccc(N2CCN(c3ccccc3O)CC2)cc1 [Nemacol-13] | 0.8333 | 0 and 1 | 0 | 20 and 19 | 0 | 2.5 | 0 and 2 and 1 | > 60 | 0 | 0 | 0 | 0 | 0 | 0 | 0 | 9.167 | > 60 | 0 | 0 | 0 | coiled (number of animals) (C. elegans; 15uM, single replicate counts): 0; no phene (number of animals) (C. elegans; 15uM, single replicate counts): 20 and 18 and 19; paralyzed (number of animals) (C. elegans; 15uM, single replicate counts): 0; any phene, mean % fraction of young adults exhibiting any phenotype (coiled, jerky-Unc or paralyzed) (C. elegans; 60uM): 20%; atypical locomotion (number of animals) (C. elegans; 60uM, single replicate counts): 0 and 11 and 13; coiled (number of animals) (C. elegans; 60uM, single replicate counts): 0; no phene (number of animals) (C. elegans; 60uM, single replicate counts): 20 and 9 and 7; paralyzed (number of animals) (C. elegans; 60uM, single replicate counts): 0 |
| O=[N+]([O-])c1ccc(N2CCN(C3CCCC3)CC2)cc1 [Nemacol-61] | – | – | – | – | – | – | – | 6.8 ± 4.1 | 0 | 0 | 0 | 0 | 40 | 12.5 | 9.167 | 88.3333 | 31.2 ± 9.6 | 0 | 0 | 20 | atypical locomotion (number of animals) (C. elegans; [5]): 0 and 1; coiled (number of animals) (C. elegans; [5]): 0 and 17 and 13; no phene (number of animals) (C. elegans; [5]): 20 and 19 and 3 and 7; paralyzed (number of animals) (C. elegans; [5]): 0; any phene: mean % fraction of young adults exhibiting any phenotype (coiled, jerky-Unc or paralyzed) (C. elegans; 3.75uM): 25.8333%; atypical locomotion (number of animals) (C. elegans; [6]): 10 and 13 and 12 and 2 and 4; coiled (number of animals) (C. elegans; [6]): 0 and 1 and 2 and 18 and 16; no phene (number of animals) (C. elegans; [6]): 8 and 7 and 5 and 4 and 0; paralyzed (number of animals) (C. elegans; [6]): 2 and 0 and 4; any phene: mean % fraction of young adults exhibiting any phenotype (coiled, jerky-Unc or paralyzed) (C. elegans; 15uM): 80%; atypical locomotion (number of animals) (C. elegans; [7]): 0 and 17 and 18; coiled (number of animals) (C. elegans; [7]): 19 and 12 and 13 and 3 and 2; no phene (number of animals) (C. elegans; [7]): 0; paralyzed (number of animals) (C. elegans; [7]): 1 and 8 and 7 and 0; any phene: mean % fraction of young adults exhibiting any phenotype (coiled, jerky-Unc or paralyzed) (C. elegans; 60uM): 100%; EC50 ([1]; Dirofilaria immitis, 72 h, read-out: Dirofilaria immitis filariae EC50): 11 µM |
